Relative viability data for one cell line are collected here from the supplement of paper PMC10307832.

Experiment in all cases: relative viability (nuclei count vs DMSO), 5 days (fraction); higher = more cells survive
Compound in the assay “QS11 + Vorinostat”: C1CC2=C(C1)C=C(C=C2)OC3=NC(=C4C(=N3)N(C=N4)CC5=CC=C(C=C5)C6=CC=CC=C6)N[C@@H](CC7=CC=CC=C7)CO [QS11] + O=C(CCCCCCC(=O)Nc1ccccc1)NO [Vorinostat] (partner 1 µM)
In outline:
(§1)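 Lung cancer cell lines were pin-tool dosed in 1536-well plates on the day after seeding, with either a lone drug or a fixed anchor-drug dose plus five library-drug doses (not always all listed) in √10 steps. Nuclei were counted on 4× images after 5 days. Relative viability is the ratio of treated-well to vehicle-well nuclei counts, with each value a median of duplicate plates.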

Compound in the assay “AZ628 + Crizotinib”: CC1=C(C=C(C=C1)NC(=O)C2=CC(=CC=C2)C(C)(C)C#N)NC3=CC4=C(C=C3)N=CN(C4=O)C [AZ628] + C[C@@H](Oc1cc(-c2cnn(C3CCNCC3)c2)cnc1N)c1c(Cl)ccc(F)c1Cl [Crizotinib] (partner 1 µM)
In short, it runs like this:
as §1

Compound in the assay “AZ628 + Tozasertib”: CC1=C(C=C(C=C1)NC(=O)C2=CC(=CC=C2)C(C)(C)C#N)NC3=CC4=C(C=C3)N=CN(C4=O)C [AZ628] + Cc1cc(Nc2cc(N3CCN(C)CC3)nc(Sc3ccc(NC(=O)C4CC4)cc3)n2)n[nH]1 [Tozasertib] (partner 0.1 µM)
In short, it runs like this: as §1

Compound in the assay “AZ628 + Olaparib”: CC1=C(C=C(C=C1)NC(=O)C2=CC(=CC=C2)C(C)(C)C#N)NC3=CC4=C(C=C3)N=CN(C4=O)C [AZ628] + O=C(c1cc(Cc2n[nH]c(=O)c3ccccc23)ccc1F)N1CCN(C(=O)C2CC2)CC1 [Olaparib] (partner 8 µM)
In short, it runs like this:
as §1

On to LCLC-97TM1, for which the relative viability in the assay with QS11 + Vorinostat (first compound 0.253 µM) worked out at 0.722; with QS11 + Vorinostat (first compound 2.53 µM), 0.615; in the assay with QS11 + Vorinostat (first compound 8 µM) it was 0.85; in the assay with AZ628 + Crizotinib (first compound 0.08 µM), 0.741; with AZ628 + Crizotinib (first compound 0.253 µM), 0.501; with AZ628 + Crizotinib (first compound 0.8 µM), 0.352. For the same cell line, the relative viability is 0.413 with AZ628 + Crizotinib (first compound 2.53 µM); 0.205 in the assay with AZ628 + Crizotinib (first compound 8 µM); 0.239 with AZ628 + Tozasertib (first compound 0.08 µM); 0.202 in the assay with AZ628 + Tozasertib (first compound 0.253 µM); 0.235 with AZ628 + Tozasertib (first compound 0.8 µM); 0.211 with AZ628 + Tozasertib (first compound 2.53 µM). Further, the relative viability was 0.167 in the assay with AZ628 + Tozasertib (first compound 8 µM); 0.517 with AZ628 + Olaparib (first compound 0.08 µM); 0.371 with AZ628 + Olaparib (first compound 0.253 µM); 0.356 in the assay with AZ628 + Olaparib (first compound 0.8 µM); 0.289 with AZ628 + Olaparib (first compound 2.53 µM); 0.202 with AZ628 + Olaparib (first compound 8 µM).
